Key:
CD8 T cells [1] = test: Phenotyping of gp100-stimulated pMel-1 CD8 T cells by flow cytometry; type: cell-based, mouse; details: for percentage of naïve cells (CD62LhiCD44lo) versus non-treated: after 3 days of stimulation; for up-regulation of exhaustion marker KLRG-1 in CD8 T cells: after the second and third stimulations; for CD62L expression in CD8 T cells / CD127 expression in CD8 T cells: day 3 and/or day 7 after each stimulation with gp100; for reservoir of TCM cells after repeated stimulation: day 7 after each stimulation, MK-2206 0.67 μM, Akt 1/2 inhibitor 2.2 μM; for percentage of CD8 T cells with TCM phenotype (CD62LhiCD44hi): pMel-1 splenocytes, gp100 25-33 1 μM, representative example, gated viable CD8+Vβ13+
Protocol: Tumor antigen-specific CD8 T cells Unfractionated splenocytes from pMel-1 mice were homogenized and stimulated in vitro by gp10025-33 peptide at a 1 μM/ml concentration (day 0). Cells were cultured in RPMI 1640 (Lonza, Allendale, N.J.) supplemented with 10% FBS, penicillin (100 U/mL), streptomycin ([…]), 0.1% β-mercaptoethanol (Life Technologies, Invitrogen, Carlsbad, Calif.) and IL-2 (100 U/ml) (Peprotech, Rocky Hill, N.J.) at 37° C. with 5% CO2. […]. The concentration of the inhibitors was maintained throughout the culture by changing the media every 48-72 hours.
On Days 7, 14 and 21, cells were re-stimulated with gp10025-33 peptide at a 1 μM/ml concentration using feeder cells (irradiated WT splenocytes, 4000 Rads) at 1:1 ratio using the same culture conditions.
To assess the phenotype of the T cells, the cultured cells were harvested and analyzed on days 3, 7, 14 and 21. The cells were stained with APC-Cy7 labeled anti-CD8, FITC labeled anti-Vβ13, PE labeled anti-CD62L, APC labeled anti-CD44, PE-CF594 labeled anti-CD127, APC labeled anti-KLRG-1 in addition to the viability stain 7AAD (BD Biosciences, San Jose, Calif.). The same APC-Cy7 labeled anti-CD8 was used for sorting the cells using the FACS ARIA II (BD Biosciences, San Jose, Calif.).
For proliferation and phenotyping, the analyses were performed on CD8 T cells specific for the gp100 antigen and were gated on viable (7AAD−), Vβ13+CD8+ T cells. For WT and KO cells, the cells were gated on viable (7AAD−), CD8+ T cells.

CD8 T cells [2] = test: Cytometric bead array of cytokine secretion by re-stimulated pMel-1 CD8 T cells; type: cell-based, mouse; details: for IL-2 secretion: re-stimulated CD8 T cells; for IFNγ secretion with further stimulations / TNF secretion with further stimulations: supernatant after 24 hours, CBA
Protocol: Following the same activation protocol mentioned above, the pMel-1 gp100-specific CD8 T cells were harvested on day 7 after the first and second stimulation. The viable cells (trypan blue negative) were then counted and co-incubated (at 1:1 ratio) with 1 μM/ml gp10025-33 pulsated irradiated splenocytes (4000 Rads) for 24 hours using the same culture conditions. The supernatant was collected and the level of IL-2, TNF and IFN-γ was assessed using the mouse Th1/Th2/Th17 Cytokine Kit BD™ Cytometric Bead Array (CBA) kit. The data was collected using an LSRII SORP with HTS flow cytometer (BD Biosciences, San Jose, Calif.), and analyzed using the FCAP Array Software v3.0 (BD Biosciences, San Jose, Calif.).

CD8 T cells [3] = test: Proliferation assay (VCT dye dilution / expansion) of gp100-stimulated pMel-1 CD8 T cells; type: cell-based, mouse; details: for proliferation of CD8 T cells (VCT dilution): day 3 after first stimulation; for expansion of CD8 T cells with further stimulations: re-stimulation days 7, 14, 21, normalized to non-treated control
Protocol: Prior to their stimulation (day 0), cells were labeled with 5 μM Violet Cell Trace (VCT) proliferation dye (Life Technologies, Invitrogen, Carlsbad, Calif.) following the manufacturers' instructions. Samples were then evaluated for CD8 T cell expansion via VCT dye dilution (day 3) using an LSRII SORP with HTS Flow Cytometer (BD Biosciences, San Jose, Calif.). The data were analyzed using FlowJo 9 or 10 (Tree Star).

CD8 T cells [4] = test: Phenotype of anti-CD3/anti-CD28 stimulated CD8 T cells from WT and Akt KO mice; type: cell-based, mouse; details: day 7; anti-CD3 (1 ng/ml) + anti-CD28; MK-2206 0.67 μM, Akt 1/2 inhibitor 2.2 μM
Protocol: The cells were then stimulated using feeder cells (irradiated WT splenocytes, 4000 Rads) at 1:1 ratio (day 0) using TCR stimulation ([…], BD Biosciences, San Jose, Calif.) and co-stimulation (anti-CD28 antibody 2.5 μg/ml BD Biosciences, San Jose, Calif.) in the presence of 100 U/ml IL-2 (Peprotech, Rocky Hill, N.J.). […] Cells were cultured in the same conditions described above. To assess the phenotype of the T cells, the cultured cells were harvested and analyzed on days 3, 7, 14 and 21. The cells were stained with APC-Cy7 labeled anti-CD8, FITC labeled anti-Vβ13, PE labeled anti-CD62L, APC labeled anti-CD44, PE-CF594 labeled anti-CD127, APC labeled anti-KLRG-1 in addition to the viability stain 7AAD (BD Biosciences, San Jose, Calif.). The same APC-Cy7 labeled anti-CD8 was used for sorting the cells using the FACS ARIA II (BD Biosciences, San Jose, Calif.). For proliferation and phenotyping, the analyses were performed on CD8 T cells specific for the gp100 antigen and were gated on viable (7AAD−), Vβ13+CD8+ T cells. For WT and KO cells, the cells were gated on viable (7AAD−), CD8+ T cells.

[5] = cited from earlier work
[6] = system: 250 other protein kinases; details: cited from earlier work
[7] = intermittent dosing schedule of 480 mg twice a day; cited from earlier work

Compound | percentage of naïve cells (CD62LhiCD44lo) versus non-treated (CD8 T cells [1]) | up-regulation of exhaustion marker KLRG-1 in CD8 T cells (CD8 T cells [1]) | CD62L expression in CD8 T cells (CD8 T cells [1]) | CD127 expression in CD8 T cells (CD8 T cells [1]) | reservoir of TCM cells after repeated stimulation (CD8 T cells [1]) | percentage of CD8 T cells with TCM phenotype (CD62LhiCD44hi) (CD8 T cells [1]) [%] | IL-2 secretion (CD8 T cells [2]) | IFNγ secretion with further stimulations (CD8 T cells [2]) | TNF secretion with further stimulations (CD8 T cells [2]) | proliferation of CD8 T cells (VCT dilution) (CD8 T cells [3]) | expansion of CD8 T cells with further stimulations (CD8 T cells [3]) | TCM cells in CD8 T cells from Akt1 KO mice (CD8 T cells [4]) | TCM cells in CD8 T cells from Akt2 KO mice (CD8 T cells [4]) | TCM cells in CD8 T cells from Akt3 KO mice (CD8 T cells [4]) | phenotype of CD8 T cells from WT mice (CD8 T cells [4]) | also measured
O.O=C(O)C(F)(F)F.O=c1[nH]c2ccccc2n1C1CCN(Cc2ccc(-c3nc4cc5[nH]cnc5cc4nc3-c3ccccc3)cc2)CC1 [Akt 1/2 inhibitor, 1,3-Dihydro-1-(1-((4-(6-phenyl-1H-imidazo[4,5-g]quinoxalin-7-yl)phenyl)methyl)-4-piperidinyl)-2H-benzimidazol-2-one trifluoroacetate salt hydrate] | higher percentage | mitigates the up-regulation | maintains a high level | maintains a high level | a high percentage was preserved | 76 | high secretion levels | preserved high levels | preserved high levels | inhibited in a dose-dependent manner | significantly enhanced | more TCM cells | maintains a significantly higher percentage of TCM cells | maintains a significantly higher percentage of TCM cells | consist mainly of TCM cells | 
NC1(c2ccc(-c3nc4ccn5c(=O)[nH]nc5c4cc3-c3ccccc3)cc2)CCC1 [MK-2206] | higher percentage | inhibits the up-regulation | maintains a high level | maintains high levels | a high percentage was preserved | 65 | significantly higher levels | maintain their ability to secrete IFNγ | significantly higher levels | inhibited in a dose-dependent manner | expand at a significantly high rate | more TCM cells | maintains a significantly higher percentage of TCM cells | maintains a significantly higher percentage of TCM cells | consist mainly of TCM cells | dose-limiting toxicities ([5]; 30, 60, 75 or 90 mg on alternate days): skin rash and stomatitis; MTD ([5]; oral, alternate days, patients with advanced solid tumors): 60 mg; inhibitory activities against 250 other protein kinases [6]: no inhibitory activities; IFN-γ production after the second stimulation versus non-treated (CD8 T cells [2]; 24 hours after re-stimulation): high and comparable levels; IFN-γ secretion after the third stimulation versus non-treated (CD8 T cells [2]; 24 hours after re-stimulation): maintained at a significantly higher level; TNF production after the second stimulation versus non-treated (CD8 T cells [2]; 24 hours after re-stimulation): high and comparable levels; TNF secretion after the third stimulation versus non-treated (CD8 T cells [2]; 24 hours after re-stimulation): maintained at a significantly higher level
NC1(C(=O)N[C@@H](CCO)c2ccc(Cl)cc2)CCN(c2ncnc3[nH]ccc23)CC1 [AZD5363] |  | inhibits the up-regulation | maintains a high level | maintains a high level |  | 91 |  |  |  |  | enhanced the proliferation |  |  |  |  | tolerability [7]: generally well tolerated

Source: US20180271870A1, “Compositions and Methods for Immune Therapy” (Augusta University Research Institute, Inc., priority 2014, published 2018)
